# Publication PMC11452715, “Pharmacokinetic and pharmacodynamic evaluation of various vasopressin doses and routes of administration in a neonatal piglet model” (Scientific Reports, 2024)
# Columns and labels:
# [1] = tested on: adults with out-of-hospital cardiac arrest; parameters: method as in PMID 14711909; conditions: adults with asystolic arrest, cited from earlier work; for rate of survival to hospital admission: p = 0.02; for rate of survival to discharge: p = 0.04
# Text: (§1) Vasopressin, an antidiuretic hormone, might be an alternative to epinephrine, as its efficacy is not impaired during metabolic or respiratory acidosis[3],[4],[9].
# [2] = tested on: patients < 18 years of age; parameters: method as in PMID 21926666; conditions: vasopressin (0.8 IU/kg) after an initial epinephrine dose (n = 10) vs ≥ 2 doses of epinephrine; cited from earlier work
# Text: as §1
# [3] = 0.8IU/kg IV vasopressin, four hours after resuscitation; cited from earlier work
# Text: This may result from the non-statistically significant lower baseline ejection fraction in 0.4IU/kg IO vasopressin piglets compared to 0.8IU/kg IO vasopressin piglets (Table 1).
# pediatric patients = conditions: 0.4IU/kg/dose IV as rescue therapy; cited from earlier work
# Text: Vasopressin, an antidiuretic hormone, might be an alternative to epinephrine, as its efficacy is not impaired during metabolic or respiratory acidosis[3],[4],[9]. […] Similarly, in a case series of four pediatric patients’ vasopressin at 0.4IU/kg/dose IV administered as rescue thera ...
# [4] = Plasma vasopressin concentrations (ELISA) and non-compartmental pharmacokinetic analysis in neonatal piglets; format: in vivo, piglet; conditions: for plasma vasopressin concentrations compared to IV vasopressin / plasma concentrations compared to IV vasopressin / Cmax: ELISA; for Tmax compared to IV vasopressin: p < 0.05; for Cmax: pig, plasma, mean (SD), SD
# Procedure: (§2) Piglets were randomized into four routes and various vasopressin doses: (1) IV vasopressin (0.4IU/kg; n = 5, control), (2) IO vasopressin (n = 5/dose; 0.2IU/kg, 0.4IU/kg, or 0.8IU/kg), (3) ETT vasopressin (n = 5/dose; 4IU/kg, 8IU/kg, or 16IU/kg), (4) IN vasopressin (n = 3/dose; 8IU/kg, 16IU/kg, or 32IU/kg). In all groups, a 3mL saline bolus was administered immediately after the vasopressin dose[20],[21].
# (§3) Preliminary tests on a few piglets were conducted to determine the optimal ETT vasopressin doses. […] All piglets, regardless of randomization, underwent insertion of an intraosseous needle during surgical instrumentation to ensure each piglet underwent similar surgical procedures. Arterial blood was collected before vasopressin administration (baseline), 1, 2, 3, 4, 5, and 10 min after vasopressin administration. Following final collection of blood, piglets were euthanized with an intravenous overdose of sodium pentobarbital (100 mg/kg).
# (§4) Demographics of study piglets were recorded. Transonic flow probes, heart rate, and pressure transducer outputs, and Millar catheter were digitized and recorded with LabChart® programming software (ADInstruments, Houston, TX). Blood samples were collected and centrifuged at 11,000 rpm for five minutes, plasma was then separated and stored at -80 °C. Concentrations of vasopressin were quantified using commercially available ELISA kits (K049-H1, Arbor Assays, Ann Arbor, Michigan, USA). Analysis of pharmacokinetic parameters was performed with the Non-Compartmental Analysis program of the SimBiology Model Analyzer app within MATLAB (MATLAB ver. R2023b, MathWorks, Natick, MA, USA).
# The data was tested for normality (Shapiro-Wilk and Kolmogorov-Smirnov test) and compared using ANOVA for repeated measures using Tukey post-test for parametric and Dunn’s test for nonparametric comparisons of continuous variables, and Fisher’s exact test for categorical variables. The data are presented as mean (standard deviation - SD) for normally distributed continuous variables and median (interquartile range - IQR) when the distribution was skewed. P-values are 2-sided and p < 0.05 was considered statistically significant. Statistical analyses were performed with SigmaPlot (Systat Software Inc, San Jose, USA).
# neonatal piglets = test: Hemodynamic and cardiac function parameters after vasopressin administration in healthy neonatal piglets; format: in vivo, piglet; conditions: for ejection fraction / cardiac output: one minute after drug administration, n = 5
# Text: Piglets were instrumented as previously described with modifications[15]–[17]. Following the induction of anaesthesia using isoflurane, piglets were intubated via a tracheostomy, and pressure-controlled ventilation (Sechrist Infant Ventilator Model IV-100; Sechrist Industries, Anaheim, California) was commenced at a respiratory rate of 16–20 breaths/min and pressure of 20/5 cmH2O. Oxygen saturation was kept within 90–100%, glucose level and hydration was maintained with an intravenous infusion of 5% dextrose at 10 mL/kg/hr. During the experiment anaesthesia was maintained with intravenous propofol 5–10 mg/kg/hr and morphine 0.1 mg/kg/hr. Additional doses of propofol (1–2 mg/kg) and morphine (0.05–0.1 mg/kg) were also given as needed. The piglet’s body temperature was maintained within a normal porcine temperature range of 38.5–39.5 °C using an overhead warmer and a heating pad.
# A 5-French Argyle® (Klein-Baker Medical Inc. San Antonio, TX) double-lumen catheter was inserted via the right femoral vein for administration of fluids and medications. A 5-French Argyle® single-lumen catheter was inserted above the right renal artery via the femoral artery for continuous arterial blood pressure monitoring in addition to arterial blood gas measurements. The right common carotid artery was also exposed and encircled with a real-time ultrasonic flow probe (2 mm; Transonic Systems Inc., Ithica, NY) to measure cerebral blood flow[15]–[17]. A Millar® catheter (MPVS Ultra1, ADInstruments, Houston, TX) was inserted into the left ventricle via the left common carotid artery for continuous measurement of stroke volume, ejection fraction, end-diastolic and -systolic volumes, left ventricular pressure, and left ventricular contractile function (dp/dtmax, dp/dtmin)^19,20.
# Piglets were placed in supine position and allowed to recover from surgical instrumentation until baseline hemodynamic measures were stable (minimum of one hour). Ventilator rate was adjusted to keep the partial arterial CO2 between 35 and 45 mmHg as determined by periodic arterial blood gas analysis. Mean systemic arterial pressure (MAP), systemic systolic arterial pressure, heart rate, and percutaneous oxygen saturation were continuously measured and recorded throughout the experiment with a Hewlett Packard 78833B monitor (Hewlett Packard Co., Palo Alto, CA)[15]–[17].
# as §2, §3
# as §4, with “MA, USA). […]” for “MA, USA).”
# [5] = 0.4IU/kg IO vasopressin, vs baseline
# [6] = 0.4IU/kg IV vasopressin (control)
smiles,measurement,setting,value
CNC[C@H](O)c1ccc(O)c(O)c1 [epinephrine],rate of survival to hospital admission,[1],20%
same,rate of survival to discharge,[1],2%
same,24 h survival,[2],30%
NC(=O)CC[C@@H]1NC(=O)[C@H](Cc2ccccc2)NC(=O)[C@H](Cc2ccc(O)cc2)NC(=O)[C@@H](N)CSSC[C@@H](C(=O)N2CCC[C@H]2C(=O)N[C@@H](CCCN=C(N)N)C(=O)NCC(N)=O)NC(=O)[C@H](CC(N)=O)NC1=O [vasopressin],base excess and lactate concentrations compared to 0.4IU/kg IV vasopressin,[3],significantly higher
same,achieved ROSC,pediatric patients,3/4
same,survived > 24 h,pediatric patients,2/4
same,survived to hospital discharge,pediatric patients,1/4
same,plasma vasopressin concentrations compared to IV vasopressin,"[4]; 4IU/kg ETT vasopressin, two minutes after drug administration",significantly lower
same,plasma vasopressin concentrations compared to IV vasopressin,"[4]; 8IU/kg ETT vasopressin, three minutes after drug administration",significantly lower
same,plasma concentrations compared to IV vasopressin,"[4]; 8IU/kg IN vasopressin, 1-10 min",significantly lower plasma concentrations at all measured time points
same,plasma vasopressin concentrations compared to IV vasopressin,"[4]; 16IU/kg ETT vasopressin, five minutes after drug administration",significantly lower
same,plasma concentrations compared to IV vasopressin,"[4]; 16IU/kg IN vasopressin, 1-10 min",significantly lower plasma concentrations at all measured time points
same,plasma concentrations compared to IV vasopressin,"[4]; 32IU/kg IN vasopressin, 10-minutes after drug administration",comparable
same,Tmax compared to IV vasopressin,[4]; 32IU/kg IN vasopressin,significantly higher
same,Tmax compared to IV vasopressin,"[4]; all ETT vasopressin doses (4, 8, 16IU/kg)",significantly higher
same,plasma vasopressin concentrations compared to IV vasopressin,"[4]; any IO vasopressin dose (0.2, 0.4, or 0.8IU/kg) vs 0.4IU/kg IV",no differences
same,"pharmacokinetic parameters (Cmax, AUC, Tmax, clearance, half-life), IV vs IO",[4]; any IO vasopressin dose vs 0.4IU/kg IV,comparable
same,Cmax,"[4]; endotracheal, 4IU/kg ETT vasopressin, n = 5, p < 0.0001 vs IV",0.958 ng/mL
same,Cmax,"[4]; inhaled or intranasal, 8IU/kg IN vasopressin, n = 3, p < 0.0001 vs IV",0.384 ng/mL
same,Cmax,"[4]; inhaled or intranasal, 16IU/kg IN vasopressin, n = 3, p < 0.0001 vs IV",0.399 ng/mL
same,Cmax,"[4]; 0.4IU/kg IV vasopressin (control), n = 5",2.25 ng/mL
same,rate of survival to hospital admission,[1],29%
same,rate of survival to discharge,[1],5%
same,time after drug administration for which cardiac output significantly decreased,neonatal piglets; 0.2IU/kg IO vasopressin,one
same,carotid blood flow compared to IV vasopressin,"neonatal piglets; 0.2IU/kg IO vasopressin, for four minutes, vs 0.4IU/kg IV",significantly higher
same,time for which MAP significantly increased,"neonatal piglets; 0.2IU/kg IO vasopressin, vs baseline",two minutes
same,time post-drug administration for which carotid blood flow was decreased,"neonatal piglets; 0.2IU/kg IO vasopressin, comparable to baseline from three to 10 min",two
same,time after drug administration for which cardiac output significantly decreased,neonatal piglets; 0.4IU/kg IO vasopressin,two
same,ejection fraction,"neonatal piglets; 0.4IU/kg IO vasopressin, p = 0.042 vs IV",8.4 (7.7–9.8) %
same,time for which MAP significantly increased,neonatal piglets; [5],five minutes
same,time post-drug administration for which carotid blood flow significantly decreased,neonatal piglets; [5],five
same,cardiac output,neonatal piglets; [6],193.1 (170.3–365.8) mL/kg/min
same,ejection fraction,neonatal piglets; [6],23.3 (22.5–32.6) %
same,time for which MAP significantly increased,"neonatal piglets; 0.4IU/kg IV vasopressin, vs baseline",five minutes
same,"MAP and dP/dT minimum, IV vasopressin compared to all IN vasopressin doses","neonatal piglets; 0.4IU/kg IV vs 8, 16, 32IU/kg IN",significantly higher
same,time for which MAP significantly increased,"neonatal piglets; 0.8IU/kg IO vasopressin, vs baseline",five minutes
same,dP/dT minimum compared to IV vasopressin,neonatal piglets; 4IU/kg ETT vasopressin vs 0.4IU/kg IV,significantly lower
same,cardiac output,"neonatal piglets; 4IU/kg ETT vasopressin, p = 0.045 vs IV",466 (394–558) mL/kg/min
same,hemodynamic response,"neonatal piglets; 4IU/kg IN vasopressin, preliminary, doses then increased",lack of hemodynamic response
same,"carotid blood flow, IN vasopressin doses compared to IV vasopressin","neonatal piglets; 8, 16, 32IU/kg IN vs 0.4IU/kg IV",higher
same,dP/dT minimum compared to IV vasopressin,neonatal piglets; 16IU/kg ETT vasopressin vs 0.4IU/kg IV,significantly lower
same,"heart rate, dP/dT maximum or minimum compared to baseline values or IV vasopressin","neonatal piglets; any IO-administered vasopressin dose (0.2, 0.4, 0.8IU/kg)",no significant changes
same,"changes from baseline in heart rate, carotid blood flow, cardiac output, ejection fraction, stroke volume, dP/dT maximum or minimum","neonatal piglets; any doses within the IN route (8, 16, 32IU/kg)",no changes
same,"changes from baseline in heart rate, carotid blood flow, cardiac output, ejection fraction, stroke volume, dP/dT maximum or minimum","neonatal piglets; any vasopressin dose administered endotracheally (4, 8, 16IU/kg)",no changes from baseline
same,24 h survival,[2],80%
